Assays:
[1] = system: Meloidogyne incognita J2 larvae; assay: Root-knot nematode solution assay; format: in vivo; conditions: 100 ppm; read after 72 hours; immobility regarded as mortality
Method: Test Procedures for Root-Knot Nematode Solution Assay (Meloidogyne incognita):
To microtiter plates containing about 1.0 mg of compound, 80:20 acetone was added to each well and the solution was mixed to obtain the desired compound concentration. The aqueous nematode suspension containing 20 to 50 Meloidogyne incognita J2 larvae per […] was added to each plate. The plates were then sealed and they were placed in an incubator at 27° C. and about 50% relative humidity. After 72 hours, the population mortality was read, whereby immobility of nematodes was regarded as mortality.

[2] = system: Yellowfever mosquitos (aedes aegypti); assay: Yellowfever mosquito water treatment test, 4th instar; format: in vivo; conditions: 50 ppm; after 6 days
Method: Yellowfever mosquitos (aedes aegypti)
The test compound (1 Vol % in acetone) was applied to water in glass dishes containing 4th instar aedes aegypti. The test dishes were maintained at about 25° C. and observed daily for mortality. Each test weas replicated in 3 test dishes.

Row | SMILES | mortality compared to untreated controls [1] | mortality compared to untreated controls [2]
1 | FC(F)(F)c1ccc2c(c1)C(N1CCN(c3ccccc3)CC1)=Nc1ccccc1S2 [I-A.51] | 100% | 
2 | Clc1ccc2c(c1)Oc1ccc(Cl)cc1C(N1CCNCC1)=N2 [I-B.23] |  | over 90%

Source: patent US20060069083A1, “Pesticidal dibenzo(hetero)azepine derivatives” (priority 2002, published 2006)
